Reference: publication PMC12844208, “Screening for Peptides to Bind and Functionally Inhibit SARS-CoV-2 Fusion Peptide Using Mirrored Combinatorial Phage Display and Human Proteomic Phage Display” (Molecules, 2026)

System: spike-FP12 peptide
Format: binding, SARS-CoV-2

Sequence | % Count [%] | Count (read counts of phage display binding to FP)
QLEHVKLFMQDLSAML | 9.07 | 4673
HPNIKRVTPQRKVFRS | 0.01 | 3
NFRLSEHRQALAAAKH | 0.00 | 2
TLPFGDVEYVDLDAFL | 0.29 | 148
SFQYADIYEQMMLTGL | 0.01 | 5
GPDRNFRLSEHRQALA | 6.59 | 3393
GSSYAEMEVMKMIMTL | 0.06 | 31
DTLLPTQQAEVLHPVV | 2.70 | 1392
